# How the values were obtained:
# [1] = molecular target: T1, BRAF (Homo sapiens, UniProt P15056); assay: Z′-LYTE kinase assay, BRAF (Invitrogen); format: biochemical; details: Z′-LYTE method
# T1 construct: purchased Invitrogen
# Description: (§1) Inhibitory activities of compounds against BRAF or BRAF V600E were measured by Invitrogen using Z′-LYTE® Method as briefly described in the following.
# (§2) 4× Test compounds are dissolved in 1% DMSO. […] ATP solutions are diluted to a 4×ATP working concentration in Kinase Buffer (50 mM HEPES pH 7.5, 0.01% BRIJ-35, 10 mM MgCl2, 1 mM EGTA).
# (§3) Reaction starts by 30-second shaking of mixture consisting of 2.5 μL4× test compound, […] and 2.5 μL 4×ATP Solution on Bar-coded Corning, low volume NBS, black 384-well plate (Corning Cat. #3676). Then the mixture is incubated for 60-minute at room temperature for the kinase reaction, followed by addition of 5 μL of a 1:1024 dilution of development reagent A and 30-second plate shake. The mixture is then incubated for another 60-minute at room temperature for development reaction. Finally fluorescence is read by plate reader.
# [2] = molecular target: T2, BRAF V600E (Homo sapiens, UniProt P15056, V600E); assay: Z′-LYTE kinase assay, BRAF V600E (Invitrogen); format: biochemical; details: Z′-LYTE method
# T2 construct: purchased Invitrogen
# T2 sequence (P15056 whole entry V600E): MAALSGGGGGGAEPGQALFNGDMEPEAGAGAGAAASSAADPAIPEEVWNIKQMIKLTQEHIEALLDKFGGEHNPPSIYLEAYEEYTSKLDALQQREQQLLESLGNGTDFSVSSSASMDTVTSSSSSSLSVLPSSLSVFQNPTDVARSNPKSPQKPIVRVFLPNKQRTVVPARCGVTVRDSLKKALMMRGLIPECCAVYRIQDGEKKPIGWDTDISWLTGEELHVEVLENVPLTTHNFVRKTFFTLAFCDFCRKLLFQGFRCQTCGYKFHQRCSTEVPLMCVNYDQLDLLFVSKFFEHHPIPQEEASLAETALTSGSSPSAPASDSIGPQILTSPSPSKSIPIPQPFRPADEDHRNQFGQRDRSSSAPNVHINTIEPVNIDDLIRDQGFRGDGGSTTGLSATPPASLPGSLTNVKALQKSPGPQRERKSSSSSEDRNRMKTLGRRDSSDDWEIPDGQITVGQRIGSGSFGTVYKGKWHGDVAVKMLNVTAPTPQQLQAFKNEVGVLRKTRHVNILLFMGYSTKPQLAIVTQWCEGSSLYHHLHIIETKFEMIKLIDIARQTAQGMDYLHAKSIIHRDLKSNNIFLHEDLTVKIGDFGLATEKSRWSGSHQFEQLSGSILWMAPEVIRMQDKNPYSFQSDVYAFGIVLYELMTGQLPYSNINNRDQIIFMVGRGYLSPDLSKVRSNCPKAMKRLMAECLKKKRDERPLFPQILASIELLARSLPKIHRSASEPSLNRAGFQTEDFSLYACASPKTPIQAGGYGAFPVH
# Description: as §1, §2, §3
# [3] = system: A549 cells; assay: Inhibition of cancer cell growth, MTT assay, A549; format: cell-based; details: Homo sapiens, 72 h
# Description: (§4) Inhibition of cell growth by compounds was measured using MTT assay (Mosmann, T., Journal of Immunological Methods, 1983, 65, 55-63). Tumor cell lines were purchased from ATCC (American Type Culture Collection, Manassas, Va.). All cell lines were maintained in RPMI 1640 (Hyclone) supplemented with 10% fetal bovine serum (FBS, Hyclone), glutamine (2 mM, Hyclone), and antibiotics (penicillin 100 U/mL and streptomycin 50 μg/mL) at 37° C. in a humidified atmosphere of 5% CO2 in air. Taxol (as a positive control, Sigma) and compounds were dissolved in DMSO (Sigma), and the final concentration of DMSO in the medium was 1%. Tumor cells were plated in 96-well plates at densities of about 4000 cells/well of a 96-well plate and allowed to adhere/grow for 24 h. They were then treated with various concentrations of drug for 72 h. 3-(4,5-Dimethylthiazol-2-yl)-2,5-diphenyltetrazolium bromide (MTT, Sigma) was used to determine the number of viable cells at the time of compound addition and the number of cells remaining after 72 h compound exposure. The number of cells remaining after 72 h was compared to the number of viable cells at the time of compound addition by measuring the absorbance at 570 nm, allowing for the calculation of growth inhibition.
# (§5) All concentrations of compounds were tested in triplicate and controls were averaged over 4 wells. IC50 was calculated by plotting the concentration of compound vs the percentage of inhibition in treated wells using GraphPad Prism 5.
# (§6) The scale utilized in Table 4 is as follows: +++ less than 500 nM; ++ between 500 nM and 1 μM; and + greater than 1 μM.
# [4] = system: A375 cells; assay: Inhibition of cancer cell growth, MTT assay, A375; format: cell-based; details: Homo sapiens, A-375, 72 h (Table 4)
# Description: as §4, §5, §6
# [5] = molecular target: T1, BRAF; assay: LanthaScreen kinase assay, BRAF; format: biochemical; details: ATP 1 μM
# Description: (§7) The inhibitory activities of compounds against BRAF or BRAF V600E protein were measured using Invitrogne's LanthaScreen™ kinase assay which is based on fluorescein-labeled MAP2K1 as a substrate. The assay procedure is described as follows.
# (§8) The scale utilized in Table 3 is as follows: ++++ less than 50 nM; +++ between 50 and 100 nM; ++ between 100 nM and 1 μM; and + greater than 1 μM.
# [6] = molecular target: T2, BRAF V600E; assay: LanthaScreen kinase assay, BRAF V600E; format: biochemical; details: ATP 10 μM
# Description: as §7, §8
# [7] = system: A375 (human melanoma cell, BRAF V600E Mutant); assay: Inhibition of cancer cell growth, MTT or MTS assay, A375; format: cell-based; details: A-375, 72 h, highest concentration 10 μM (Table 5)
# Description: (§9) A375 (human melanoma cell, BRAF V600E Mutant), CHL-1 (human melanoma cell, BRAF wild type), SK-MEL-28 (human melanoma cell, BRAF V600E Mutant) and SK-MEL-31(human melanoma cell, Braf WT Mutant) were purchased from ATCC (American Type Culture Collection, Manassas, Va.). All cell lines were maintained in RPMI 1640 (Hyclone) or DMEM (Hyclone) supplemented with 10% fetal bovine serum (FBS, Hyclone), glutamine (2 mM, Hyclone), and antibiotics (penicillin 100 U/mL and streptomycin 50 μg/mL) at 37° C. in a humidified atmosphere of 5% CO2 in air.
# (§10) To test IC50 of inhibition of individual compounds against each cell line, A375, SK-MEL-28and SK-MEL-31 cells were first plated in 96-well plates at densities of 3000 cells/well, and CHL-1 2500 cells/well. Cells were then incubated to allow cells to adhere and grow for 24 h. Cells were then treated with a series of concentrations of compounds for 72 h. The highest concentration of compounds was 10 μM for A375 and SK-MEL-28 cells and 100 μM for CHL-1 and SK-MEL-31 cells. Cells were then removed from the incubator and medium was removed by inverting and tapping the plates. 100 μL of MTT (0.5 mg/ml) or 10 μL or MTS was added to each well followed by an incubated at 37° C. for 4 h. Then MTT was removed and 200 μL of DMSO was added to each well, followed by reading the ODs at 570 nm after a 5 second shaking cycle in a 96-well spectrophotometer. For MTS method, MTS was not removed, and the incubated solutions were directly put in a 96-well spectrophotometer for the reading of the ODs at 492 nm.
# (§11) IC50 was calculated by plotting the concentration of compound vs the percentage of inhibition in treated wells using GraphPad Prism 5. […] The scale utilized in Table 5 is as follows: +++ less than 500 nM; ++ between 500 nM and 1 μM; and + greater than 1 μM.
# [8] = system: CHL-1 (human melanoma cell, BRAF wild type); assay: Inhibition of cancer cell growth, MTT or MTS assay, CHL-1; format: cell-based; details: 72 h, highest concentration 100 μM
# Description: as §9, §10, §11
# [9] = system: SK-MEL-28 (human melanoma cell, BRAF V600E Mutant); assay: Inhibition of cancer cell growth, MTT or MTS assay, SK-MEL-28; format: cell-based; details: 72 h, highest concentration 10 μM
# Description: as §9, §10, §11
# [10] = system: SK-MEL-31 (human melanoma cell, Braf WT Mutant); assay: Inhibition of cancer cell growth, MTT or MTS assay, SK-MEL-31; format: cell-based; details: 72 h, highest concentration 100 μM
# Description: as §9, §10, §11
# T1 sequence (P15056 whole entry): as the sequence (P15056 whole entry V600E) above, with E600V counted along it
inhibition at 1 µM [1] [%],inhibition at 1 µM [2] [%],IC50 [3] [nM],IC50 [4] [nM],IC50 [5] [nM],IC50 [6] [nM],IC50 [7] [nM],IC50 CHL-1 [8],IC50 [9] [nM],IC50 SK-MEL-31 [10],SMILES
70 to 89,> 89,> 1000,> 1000,–,–,–,–,–,–,"CCCS(=O)(=O)Nc1ccc(F)c(C(=O)c2ccc3ncc(OC)nc3c2)c1F [Compound C03, N-(2,4-difluoro-3-(3-methoxyquinoxaline-6-carbonyl)phenyl)propane-1-sulfonamide]"
–,< 70,> 1000,> 1000,–,–,–,–,–,–,"CCCS(=O)(=O)Nc1cc(F)cc(C(=O)c2ccc3nccnc3c2)c1 [Compound C16, N-(3-fluoro-5-(quinoxaline-6-carbonyl)phenyl)propane-1-sulfonamide]"
> 89,70 to 89,> 1000,< 500,–,–,–,–,–,–,"CCCS(=O)(=O)Nc1cc(F)c(F)c(C(=O)c2ccc3ncc(OC)nc3c2)c1F [Compound C10, N-(2,4,5-trifluoro-3-(3-methoxyquinoxaline-6-carbonyl)phenyl)propane-1-sulfonamide]"
70 to 89,> 89,–,–,100 to 1000,< 50,< 500,No inhibition,–,–,"CCCS(=O)(=O)Nc1ccc(F)c(C(=O)c2ccc3nccnc3c2)c1Cl [Compound C06, N-(2-chloro-4-fluoro-3-(quinoxaline-6-carbonyl)phenyl)propane-1-sulfonamide]"
–,< 70,> 1000,> 1000,50 to 100,< 50,–,–,–,–,"CCCS(=O)(=O)Nc1cc(F)cc(C(=O)c2ccc3ncc(N4CCOCC4)nc3c2)c1 [Compound C18, N-(3-fluoro-5-(3-morpholinoquinoxaline-6-carbonyl)phenyl)propane-1-sulfonamide]"
> 89,70 to 89,> 1000,< 500,–,–,–,–,–,–,"CCCS(=O)(=O)Nc1cc(F)c(F)c(C(=O)c2ccc3nccnc3c2)c1Cl [Compound C14, N-(2-chloro-4,5-difluoro-3-(quinoxaline-6-carbonyl)phenyl)propane-1-sulfonamide]"
< 70,70 to 89,> 1000,500 to 1000,–,–,–,–,–,–,"CCCS(=O)(=O)Nc1cc(F)c(F)c(C(=O)c2ccc3nccnc3c2)c1 [Compound C07, N-(3,4-difluoro-5-(quinoxaline-6-carbonyl)phenyl)propane-1-sulfonamide]"
–,< 70,> 1000,> 1000,–,–,–,–,–,–,"CCCS(=O)(=O)Nc1ccc(F)c(C(=O)c2ccc3nccnc3c2)c1 [Compound C15, N-(4-fluoro-3-(quinoxaline-6-carbonyl)phenyl)propane-1-sulfonamide]"
> 89,> 89,> 1000,> 1000,–,–,–,–,–,–,"CCCS(=O)(=O)Nc1cc(F)c(F)c(C(=O)c2ccc3ncc(N(C)CCN(C)C)nc3c2)c1F [Compound C13, N-(3-(3-((2-(dimethylamino)ethyl)(methyl)amino)quinoxaline-6-carbonyl)-2,4,5-trifluorophenyl)propane-1-sulfonamide]"
70 to 89,> 89,–,–,–,–,< 500,No inhibition,500 to 1000,No inhibition,"CCCS(=O)(=O)Nc1cc(F)c(F)c(C(=O)c2ccc3ncc(-c4ccc(Cl)cc4)nc3c2)c1F [Compound C12, N-(3-(3-(4-chlorophenyl)quinoxaline-6-carbonyl)-2,4,5-trifluorophenyl)propane-1-sulfonamide]"
70 to 89,> 89,< 500,500 to 1000,–,–,–,–,–,–,"CCCS(=O)(=O)Nc1ccc(F)c(C(=O)c2ccc3ncc(C#N)nc3c2)c1F [Compound C05, N-(3-(3-cyanoquinoxaline-6-carbonyl)-2,4-difluorophenyl)propane-1-sulfonamide]"
70 to 89,> 89,< 500,< 500,–,–,–,–,–,–,"CCCS(=O)(=O)Nc1ccc(F)c(C(=O)c2ccc3nccnc3c2)c1F [Compound C01, N-(2,4-difluoro-3-(quinoxaline-6-carbonyl)phenyl)propane-1-sulfonamide]"
70 to 89,> 89,> 1000,> 1000,–,–,–,–,–,–,"CCCS(=O)(=O)Nc1cc(F)c(F)c(C(=O)c2ccc3ncc(Cl)nc3c2)c1F [Compound C11, N-(3-(3-chloroquinoxaline-6-carbonyl)-2,4,5-trifluorophenyl)propane-1-sulfonamide]"
70 to 89,> 89,500 to 1000,500 to 1000,–,–,–,–,–,–,"CCCS(=O)(=O)Nc1ccc(F)c(C(=O)c2ccc3ncc(-c4ccc(Cl)cc4)nc3c2)c1F [Compound C02, N-(3-(3-(4-chlorophenyl)quinoxaline-6-carbonyl)-2,4-difluorophenyl)propane-1-sulfonamide]"
–,< 70,> 1000,> 1000,–,–,–,–,–,–,"CCCS(=O)(=O)Nc1ccc(F)c(C(=O)c2ccc3ncc(N4CCOCC4)nc3c2)c1 [Compound C17, N-(4-fluoro-3-(3-morpholinoquinoxaline-6-carbonyl)phenyl)propane-1-sulfonamide]"
–,70 to 89,> 1000,> 1000,100 to 1000,50 to 100,–,–,–,–,"CCCS(=O)(=O)Nc1cc(F)c(F)c(C(=O)c2ccc3ncc(N4CCOCC4)nc3c2)c1 [Compound C37, N-(3,4-difluoro-5-(3-morpholinoquinoxaline-6-carbonyl)phenyl)propane-1-sulfonamide]"
< 70,< 70,> 1000,> 1000,–,–,–,–,–,–,"CCCS(=O)(=O)Nc1cc(F)c(SC)c(C(=O)c2ccc3nccnc3c2)c1F [Compound C08, N-(2,5-difluoro-4-(methylthio)-3-(quinoxaline-6-carbonyl)phenyl)propane-1-sulfonamide]"
